Experimental data taken from patent US20100196874A1, “METHOD OF DRUG DESIGN” (priority 2006, published 2010).
Like-named read-outs stand apart in the source and are kept apart here.

What was measured:
CVB3 [1] = conditions: for IC50: read-out: IC5, HeLa cell culture with CVB3; for order of antiviral potency: CVB3, same order as against HRV2; for antiviral effect against CVB3 relative to cytotoxic effect: % virus yield versus % cell metabolism, HeLa cells, FIG. 1
Description: (§1) The toxicity of the compounds (CC50, being the concentration causing 50% reduction in cell metabolism as measured by Alamar Blue assay) reflects the relative activity of each compound against cellular ion channels, while the antiviral activity (IC50) reflects the relative activity of each compound against the RdRP of CVB3.

[2] = system: amiloride-resistant and guanidine-resistant CVB3 clones; assay: Cross-resistance of amiloride-resistant and guanidine-resistant virus clones; type: cell-based, Coxsackievirus B3
CVB3 [3] = assay: Release of virus from CVB3-infected cells; type: cell-based, Coxsackievirus B3; conditions: compared to untreated controls, FIG. 3
CVB3 [4] = assay: Viral RNA synthesis, 3H-uridine pulse label; type: cell-based, Coxsackievirus B3; conditions: treated between four and five hours post infection, compared to untreated cells
Protocol: A standard method to determine which of the two processes is inhibited directly is to add the inhibitor and pulse-label viral RNA and proteins at the time in the replication cycle when sufficient amounts of RNA and proteins have been produced to allow continuation of one process independent of the other.
In a further set of experiments, the effect of the drugs on viral protein synthesis (see FIG. 5) and viral RNA synthesis (see FIG. 6) was determined. Cells were infected as described in Examples 2 and 3, and drugs were added to cells at four hours post infection. Radioactive labels (35S-methionine for proteins, 3H-uridine for RNA) were added to cells from 4.5-5 h post infection. Treatment with GHCl, which inhibits enteroviral RNA replication but not protein synthesis was used as a control.

[5] = system: CVB3 mutants S299T, A372V, D48G; assay: Drug sensitivity of CVB3 carrying single introduced mutations; type: cell-based, Coxsackievirus B3; conditions: for effect of D48G mutation on virus sensitivity: 2A protein mutation by itself; for sensitivity of viruses containing S299T or A372V mutations: 3D protein mutations, FIG. 11
HRV2 = conditions: cited from earlier work
CVB3 [6] = assay: Time of addition of drugs to CVB3-infected cultures, total virus yield; type: cell-based, Coxsackievirus B3; conditions: 400 μM amiloride or 25 μM EIPA, added up to 2 hours post-infection, yield at 10 hours
Protocol: Cultures were incubated until 10 hours post-infection, then the total virus yield (released virus+intracellular virus) was quantitated (FIG. 2A). Kinetics of virus production was measured in parallel (FIG. 2B). […] This contrasts with well-known antiviral drugs active against picornaviruses such as Pleconaril, which prevent uncoating and/or binding to the cell.

CVB3 [7] = assay: Reversibility: compounds removed at various times post-infection, CVB3 yield at 10 hours; type: cell-based, Coxsackievirus B3; conditions: compounds removed at 1, 2 or 4 hours post-infection, HeLa cells
Protocol: Virus replication was then allowed to continue until 10 hours post-infection.

CVB3 [8] = assay: Viral assembly: viral RNA (3H-uridine) versus virus produced; type: cell-based, Coxsackievirus B3; conditions: 3H-uridine labelling; 25 micromolar EIPA (compared with 500 micromolar guanidine), 400 micromolar amiloride
Protocol: In a further set of experiments, the effect of the drugs on viral assembly was determined. […] Guanidine is well known to inhibit the initiation of viral RNA replication through its effect on the viral 2C protein, but has no effect on the assembly of virus from RNA that is replicated in its presence. Infected cells were incubated with 3H-uridine to label viral RNA, and RNA was detected by electrophoresis and autoradiography.

[9] = concentration causing 50% reduction in cell metabolism, Alamar Blue assay, HeLa

Description for HeLa cells: as §1

In the case of `N=C(NCc1ccc(Cl)cc1Cl)NC(=O)c1nc(Cl)c(N)nc1N` [2,4-DCB], the CC5 (HeLa cells; [9]) is reported as 14 µM and the IC50 (CVB3 [1]) is reported as 5 µM.

Work on `N/C(=N\C(=O)c1nc(Cl)c(N)nc1N)NCc1ccc(Cl)c(Cl)c1` [3,4-DCB] yielded a CC5 (HeLa cells; [9]) of 14 µM and an IC50 (CVB3 [1]) of 5 µM.

In the case of `NC(N)=NC(=O)c1nc(Cl)c(N)nc1N` [Amiloride, 3,5-diamino-6-chloro-N-(diaminomethylidene) pyrazine-2-carboxamide], the “sensitivity of guanidine-resistant virus clones to antiviral effect” value ([2]; six clones of guanidine-resistant virus) is reported as “remained sensitive”, the “proportion of extracellular virus” value (CVB3 [3]) is reported as “slight increase” and the CC5 (HeLa cells) is reported as greater than 1000 µM. For the same compound, the “amount of viral RNA synthesis” value (CVB3 [4]) was “dramatically reduced”, the “effect of D48G mutation on virus sensitivity” value [5] was “no significant effect” and the “sensitivity of viruses containing S299T or A372V mutations” value [5] was “reduced sensitivity”. For the same compound, the “order of antiviral potency” value (CVB3 [1]) was “EIPA>benzamil>amiloride”, the IC50 (CVB3 [1]) was 50 µM and the “effect upon HRV2 RNA replication” value (HRV2) was “no effect”. The “reduction of virus replication by time of addition” value (CVB3 [6]) was “fully effective”, the “CVB3 production at 10 hours post-infection after removal of compound” value (CVB3 [7]) was “equivalent to that of the untreated cultures” and the “amount of viral RNA produced” value (CVB3 [8]) was “greatly reduced”.

In the case of `N/C(=N\C(=O)c1nc(Cl)c(N)nc1N)NCc1ccccc1` [Benzamil], the CC5 (HeLa cells; [9]) is reported as 100 µM, the “antiviral effect against CVB3 relative to cytotoxic effect” value (CVB3 [1]) is reported as “selective antiviral effect” and the “order of antiviral potency” value (CVB3 [1]) is reported as “EIPA>benzamil>amiloride”. It also gave an IC50 (CVB3 [1]) of 10 µM.

`CNC(N)=NC(=O)c1cc(Cl)ccc1O` [CHMG] gave a CC5 (HeLa cells; [9]) of 155 µM and an IC50 (CVB3 [1]) of 9 µM.

Compound `CN(C)c1nc(N)c(C(=O)N=C(N)N)nc1Cl` [DMA] has a CC5 (HeLa cells; [9]) of 190 µM and an IC50 (CVB3 [1]) of 90 µM.

With `CCN(c1nc(N)c(C(=O)N=C(N)N)nc1Cl)C(C)C` [EIPA, 5-(N-ethyl-N-isopropyl)amiloride] the “proportion of extracellular virus” value (CVB3 [3]) was “slight increase”, the CC5 (HeLa cells; [9]) was 25 µM and the “amount of viral RNA synthesis” value (CVB3 [4]) was “dramatically reduced”. For the same compound, the “effect of D48G mutation on virus sensitivity” value [5] was “no significant effect”, the “sensitivity of viruses containing S299T or A372V mutations” value [5] was “reduced sensitivity” and the “antiviral effect against CVB3 relative to cytotoxic effect” value (CVB3 [1]) was “selective antiviral effect”. For the same compound, the “order of antiviral potency” value (CVB3 [1]) was “EIPA>benzamil>amiloride”, the IC50 (CVB3 [1]) was 2 µM and the “effect upon HRV2 RNA replication” value (HRV2) was “no effect”. For the same compound, the “effect on HRV2 release” value (HRV2; previous data) was “inhibitory effect”, the “reduction of virus replication by time of addition” value (CVB3 [6]) was “fully effective” and the “CVB3 production at 10 hours post-infection after removal of compound” value (CVB3 [7]) was “equivalent to that of the untreated cultures”. The “amount of viral RNA produced” value (CVB3 [8]) was “equivalent amounts of viral RNA”.

In the case of `NC(N)=NC(=O)c1nc(Cl)c(N2CCCCCC2)nc1N` [HMA, 5-(N,N-hexamethylene)amiloride], the CC5 (HeLa cells) is reported as 25 µM, the “antiviral effect against CVB3 relative to cytotoxic effect” value (CVB3 [1]) is reported as “selective antiviral effect” and the IC50 (CVB3 [1]) is reported as 2 µM.

With `CC(C)CN(C)c1nc(N)c(C(=O)N=C(N)N)nc1Cl` [MIBA] the CC5 (HeLa cells; [9]) was 25 µM and the IC50 (CVB3 [1]) was 2 µM.

For `Cl.N=C(N)N` [guanidine, guanidine hydrochloride], the “sensitivity of amiloride-resistant virus clones to antiviral effect” value ([2]; six clones of amiloride-resistant virus) was “remained sensitive”.

Work on CHPG yielded a CC5 (HeLa cells; [9]) of 15 µM and an IC50 (CVB3 [1]) of 2 µM.
